From patent US11666558B2, “Methods of treating intraocular pressure with activators of Tie-2” (EyePoint Pharmaceuticals, Inc., priority 2015, dated 2023)
Entries after “also recorded” stand apart in the source; their conditions may differ. Structures can show the parent of a compound that is named as a salt. Where two headings read alike, the source gives them in different places.

Columns and labels:
[1] = Plasma concentrations and pharmacokinetic parameters after topical ocular, subcutaneous and intravitreal administration; assay type: in vivo, New Zealand White rabbits; details: for AUC(0-t): read-out: AUClast (± SE); for concentration at 0.5 hr / concentration at 0.5 h: 0.50 hr
Experimental: To measure the concentration of Compound 1 in plasma and ocular tissues following topical ocular, subcutaneous, and intravitreal administration, New Zealand White rabbits were administered Compound 1, and plasma and ocular samples were collected at pre-determined time points. Compound 1 formulations were prepared fresh on each day of dosing.
New Zealand White rabbits weighing 2.5 to 3.5 kg were used on this study. Rabbits were housed one per cage. Animals were not fasted and only healthy animals with no ocular illness were used. Two rabbits per group were sacrificed at each of four ocular tissue sampling time points for a total of eight rabbits per group.
Animals were anesthetized for ocular (topical) and intravitreal dosing following the 12IA7 IACUC protocol. Each rabbit received a bolus dose of test formulation either via topical ocular administration 3 times daily on Days 1 and 2 (at 0, 6, and 12 hours), and once on Day 3 (at 0 hours) into both eyes; via intravitreal administration into both eyes once on Day 1 (at 0 hours); or via subcutaneous administration 2 times daily on Days 1 and 2 (at 0 and 8 hours) and once daily on Day 3 (at 0 hours). Doses were given within an approximately 1 hour window each day where applicable.
Each blood sample was collected on Day 3 post dose at pre-determined time points from the rabbits via an ear vessel and placed into chilled polypropylene tubes containing sodium heparin as an anticoagulant. Samples were spun by centrifuge at 4° C. and 3,000×g for 5 minutes. Samples were maintained chilled throughout processing. Each plasma sample was placed on dry ice and stored in a freezer at −60° C. to −80° C. pending bioanalysis.
An LC-MS/MS method was developed for the determination of Compound 1 in rabbit aqueous tissues (plasma, aqueous and vitreous humor) and solid ocular tissue samples. A pre-study standard curve was analyzed to determine the specificity, range, and lower limit of quantitation of the method. Plasma and tissue homogenate study samples were extracted and analyzed. All the samples were treated identically to the standards.
One eight-point standard curve was used in each analytical batch. To be accepted, each batch must have had at least five of eight standards with accuracy within ±20% of nominal, except at the lower limit of quantification (LLOQ), where ±25% was acceptable.
Pharmacokinetic parameters were calculated from the time course of the plasma concentration. The maximum plasma concentration (Cmax) and time to the maximum plasma drug concentration (Tmax) were the observed values for each concentration-time profiles. The area under the plasma drug concentration-time curve (AUClast, with last being from time 0 to the last quantifiable point) was calculated using the trapezoidal formula. The mean residence time MRTlast was calculated as a ratio of AUMClast (area under the first movement curve) to AUClast.

[2] = General health observations after repeated dosing; assay type: in vivo, New Zealand White rabbits; details: repeated topical (0.45 or 1.2 mg/eye) and subcutaneous (10 mg/kg) dosing over 7 days
Experimental: Animals were observed within their cages once daily throughout the study period. […] General health observations were recorded daily beginning on Day 1 and continuing throughout the course of the study.

[3] = New Zealand White, rabbit, plasma, other: intravitreal, 1.55 mg/kg, plasma, intravitreal 2.5 mg/eye (~1.55 mg/kg), solution
[4] = New Zealand White, rabbit, plasma, other: intravitreal, 2.5 mg, plasma, intravitreal 2.5 mg/eye (~1.55 mg/kg), solution
[5] = New Zealand White, rabbit, plasma, other: intravitreal, 2.5 mg/eye, intravitreal 2.5 mg/eye (~1.55 mg/kg), solution, read-out: plasma Average
[6] = New Zealand White, rabbit, plasma, other: intravitreal, 2.5 mg/eye, intravitreal 2.5 mg/eye (~1.55 mg/kg), solution, read-out: plasma Conc., individual rabbit
[7] = New Zealand White, rabbit, plasma, sc, 5 mg/kg, subcutaneous 5 mg/kg/dose, solution
[8] = New Zealand White, rabbit, plasma, subcutaneous, 5 mg/kg/dose, subcutaneous 5 mg/kg/dose, solution, read-out: plasma Average
[9] = New Zealand White, rabbit, plasma, subcutaneous, 5 mg/kg/dose, subcutaneous 5 mg/kg/dose, solution, read-out: plasma Conc., individual rabbit
[10] = New Zealand White, rabbit, plasma, topical or ocular, 0.7 mg/kg, topical ocular 1.2 mg/eye (~0.7 mg/kg/dose), solution
[11] = New Zealand White, rabbit, plasma, topical or ocular, 1.2 mg, topical ocular 1.2 mg/eye (~0.7 mg/kg/dose), solution
[12] = New Zealand White, rabbit, plasma, topical, 1.2 mg/eye, topical ocular 1.2 mg/eye (~0.7 mg/kg/dose), read-out: plasma Average
[13] = plasma, intravitreal solution, normalized by 1.55 mg/kg
[14] = plasma, subcutaneous solution, normalized by 5 mg/kg
[15] = subcutaneous administration, sodium salt solution

## COC(=O)N[C@@H](Cc1ccccc1)C(=O)N[C@@H](Cc1ccc(NS(=O)(=O)O)cc1)c1csc(-c2cccs2)n1 [Compound 1 sodium salt]
[1]; [3]
  AUC(0-inf): 956 ng·h/mL
  Cmax: 39.8 ng/mL
  MRT last: 15.1 h
  half-life: 8.08 h
  AUC(0-t): 953 ng·h/mL
[1]; New Zealand White, rabbit, plasma, other: intravitreal, 1.55 mg/kg, plasma, intravitreal 2.5 mg/eye (~1.55 mg/kg), solution, read-out: tmax
  Tmax: 3 h
[1]; [4]
  AUC(0-inf): 956 ng·h/mL
  Cmax: 39.8 ± 2.3 ng/mL
  MRT last: 15.1 h
  half-life: 8.08 h
  AUC(0-t): 953 ± 91.1 ng·h/mL
[1]; New Zealand White, rabbit, plasma, other: intravitreal, 2.5 mg, plasma, intravitreal 2.5 mg/eye (~1.55 mg/kg), solution, read-out: tmax
  Tmax: 3 h
[1]; New Zealand White, rabbit, plasma, other: intravitreal, 2.5 mg/eye, intravitreal 2.5 mg/eye (~1.55 mg/kg), solution, 1.0 hr, read-out: plasma Average
  concentration at 1 h: 32.3 ng/mL
[1]; New Zealand White, rabbit, plasma, other: intravitreal, 2.5 mg/eye, intravitreal 2.5 mg/eye (~1.55 mg/kg), solution, 1.0 hr, read-out: plasma Conc., individual rabbit
  concentration at 1 h: 33.2 ng/mL
[1]; [5]
  concentration at 3 h: 39.8 ng/mL
  concentration at 24 hr: 16.9 ng/mL
  concentration at 48 hr: 2.58 ng/mL
  concentration at 72 hr: 0.27 ng/mL
[1]; [6]
  concentration at 3 h: 37.5 ng/mL
  concentration at 24 hr: 19 ng/mL
  concentration at 48 hr: 2.7 ng/mL
  concentration at 72 hr: 0.215 ng/mL
[1]; New Zealand White, rabbit, plasma, other: intravitreal, 2.5 mg/eye, intravitreal 2.5 mg/eye (~1.55 mg/kg), solution, 6.0 hr, read-out: plasma Average
  concentration at 6 h: 36.8 ng/mL
[1]; New Zealand White, rabbit, plasma, other: intravitreal, 2.5 mg/eye, intravitreal 2.5 mg/eye (~1.55 mg/kg), solution, 6.0 hr, read-out: plasma Conc., individual rabbit
  concentration at 6 hr: 44.3 ng/mL
[1]; New Zealand White, rabbit, plasma, sc, 5 mg/kg, plasma, subcutaneous 5 mg/kg/dose, solution
  AUC(0-t): 1560 ± 195 ng·h/mL
[1]; New Zealand White, rabbit, plasma, sc, 5 mg/kg, plasma, subcutaneous 5 mg/kg/dose, solution, read-out: tmax
  Tmax: 0.25 h
[1]; New Zealand White, rabbit, plasma, sc, 5 mg/kg, subcutaneous administration, solution, read-out: Mean plasma Tmax (converted)
  Tmax: 0.25 h
[1]; [7]
  AUC(0-inf): 1560 ng·h/mL
  Cmax: 1520 ± 115 ng/mL
  MRT last: 0.87 h
  half-life: 0.47 h
[1]; [8]
  concentration at 0.25 hr: 1520 ng/mL
  concentration at 0.5 hr: 1100 ng/mL
  concentration at 4 h: 7.76 ng/mL
[1]; [9]
  concentration at 0.25 hr: 1640 ng/mL
  concentration at 0.5 hr: 883 ng/mL
  concentration at 4 h: 7.98 ng/mL
[1]; New Zealand White, rabbit, plasma, subcutaneous, 5 mg/kg/dose, subcutaneous 5 mg/kg/dose, solution, 1.0 hr, read-out: plasma Average
  concentration at 1 hr: 646 ng/mL
[1]; New Zealand White, rabbit, plasma, subcutaneous, 5 mg/kg/dose, subcutaneous 5 mg/kg/dose, solution, 1.0 hr, read-out: plasma Conc., individual rabbit
  concentration at 1 h: 664 ng/mL
[1]; New Zealand White, rabbit, plasma, subcutaneous, 5 mg/kg/dose, subcutaneous 5 mg/kg/dose, solution
  concentration at 2 h: 180 ng/mL
[1]; New Zealand White, rabbit, plasma, topical or ocular, 0.7 mg/kg, plasma, topical ocular 1.2 mg/eye (~0.7 mg/kg/dose), solution
  AUC(0-t): 11.8 ng·h/mL
[1]; New Zealand White, rabbit, plasma, topical or ocular, 0.7 mg/kg, plasma, topical ocular 1.2 mg/eye (~0.7 mg/kg/dose), solution, read-out: tmax
  Tmax: 4 h
[1]; [10]
  Cmax: 7.48 ng/mL
  MRT last: 2.98 h
[1]; New Zealand White, rabbit, plasma, topical or ocular, 1.2 mg, plasma, topical ocular 1.2 mg/eye (~0.7 mg/kg/dose), solution
  AUC(0-t): 11.8 ± 5.7 ng·h/mL
[1]; New Zealand White, rabbit, plasma, topical or ocular, 1.2 mg, plasma, topical ocular 1.2 mg/eye (~0.7 mg/kg/dose), solution, read-out: tmax
  Tmax: 4 h
[1]; [11]
  Cmax: 7.48 ± 5.53 ng/mL
  MRT last: 2.98 h
[1]; [12]
  concentration at 0.5 h: 3.03 ng/mL
  concentration at 4 h: 7.48 ng/mL
[1]; New Zealand White, rabbit, plasma, topical, 1.2 mg/eye, topical ocular 1.2 mg/eye (~0.7 mg/kg/dose), read-out: plasma Conc., individual rabbit
  concentration at 0.5 h: 3.84 ng/mL
[1]; New Zealand White, rabbit, plasma, topical, 1.2 mg/eye, topical ocular 1.2 mg/eye (~0.7 mg/kg/dose), 1.0 hr, read-out: plasma Average
  concentration at 1 h: 1.46 ng/mL
[1]; New Zealand White, rabbit, plasma, topical, 1.2 mg/eye, topical ocular 1.2 mg/eye (~0.7 mg/kg/dose), 1.0 hr, read-out: plasma Conc., individual rabbit
  concentration at 1 h: 1.28 ng/mL
[1]; New Zealand White, rabbit, plasma, topical, 1.2 mg/eye, topical ocular 1.2 mg/eye (~0.7 mg/kg/dose)
  concentration at 2 h: 1.14 ng/mL
[1]; intravitreal administration, sodium salt solution
  Mean plasma Cmax, fold higher than Compound 1 (free acid) suspension: approximately 2 fold
[1]; [13]
  Dose normalized AUClast: 615 kg·ng·h/mL/mg
  Dose normalized AUC∞: 617 kg·ng·h/mL/mg
[1]; plasma, intravitreal solution, normalized by 1.55 mg/kg, listed as Compound 1 (sodium salt)
  Dose normalized AUClast: 615 ± 58.8 kg·ng·h/mL/mg
[1]; [14]
  Dose normalized AUClast: 311 kg·ng·h/mL/mg
  Dose normalized AUC∞: 312 kg·ng·h/mL/mg
[1]; plasma, subcutaneous solution, normalized by 5 mg/kg, listed as Compound 1 (sodium salt)
  Dose normalized AUClast: 311 ± 38.9 kg·ng·h/mL/mg
[1]; plasma, topical ocular, normalized by 0.7 mg/kg
  Dose normalized AUClast: 16.8 kg·ng·h/mL/mg
[1]; plasma, topical ocular, normalized by 0.7 mg/kg, listed as Compound 1 (sodium salt)
  Dose normalized AUClast: 16.8 ± 8.15 kg·ng·h/mL/mg
[1]; [15]
  Mean plasma AUClast, fold higher than Compound 1 (free acid) suspension: approximately 2 fold
  Mean plasma Cmax, fold higher than Compound 1 (free acid) suspension: approximately 3 fold
[2]
  general health: normal health and activity; also recorded: No adverse effects
